# Experimental data published in patent US8545876B1, “Modified drugs for use in liposomal nanoparticles” (The University of British Columbia, priority 2008, dated 2013).
# Read-outs that look alike come from different tables or passages of the source.
# Columns and labels:
# A431 tumors = assay: In vivo kinetics and anticancer activity of vincristine formulations; set-up: species or system SCID mice; conditions: 2 mg/kg i.v.
# Description: FIG. 9. In vivo kinetics and anticancer activity of free vincristine (VCR) (2 mg/kg) and vincristine (2 mg/kg) encapsulated in 100 nm egg sphingomyelin/cholesterol LN injected i.v. in SCID mice bearing A431 tumors. (8A) Concentration profile of free VCR (□) and LN formulated VCR (●) in blood plasma over time. […] (8B) Release of free VCR (●) from LN formulations (% retention) over time. […] (8C) Tumor concentration ([…]) of VCR over time after administration of free VCR (□) and LN formulated VCR (●). […] (8D) Anticancer activity of free VCR (1) and LN formulated VCR (●) relative to saline control (▪). […] Nano-liposomal formulations increase the amount of drug reaching sites of tumor growth and prolongs the duration of exposure to therapeutically active levels of drug, resulting in increased antitumor activity.
# [1] = Chemical (hydrolytic) stability in buffered aqueous solutions; format: physicochemical; conditions: for Prodrug levels (% remaining), pH 4: 24 hour incubation in pH 4 buffer, 37° C.
# Description: (§1) The chemical stability of the docetaxel derivatives was determined in aqueous solutions at different pH values and temperatures, and in biological media (mouse plasma). Aliquots of the docetaxel derivatives in acetonitrile were mixed with buffered citrate/HEPES (10 mM/10 mM) solutions at pH 4.0 and 7.5, or in mouse plasma in 1 mL glass HPLC sample vials sealed with Teflon-lined caps (final volume 0.25 ml, final docetaxel derivative concentration 50 µg/ml). Drug stability was determined 1, 4 and 24 hrs after incubation at 37° C. by UPLC-UV. At the indicated time points, a 3-fold excess of methanol/0.1% TFA was added to the sample. Citrate/HEPES buffered samples were analyzed by UHPLC as described above. For plasma samples, proteins precipitated by the addition of methanol/0.1% TFA pelleted by centrifugation at 14,000×g and supernatants were analyzed for the drug derivatives. Heparanized mouse plasma was diluted to 50% with 100 mM sodium-phosphate buffer to keep the pH constant throughout the experiment.
# (§2) To be suitable for formulation in LN, derivatives must be stable at pH 4 (the pH present inside the LN carrier). In addition, prodrug derivatives should readily form the active drug under physiological conditions (e.g., at pH 7.4 and/or in the presence of endogenous enzymes) once released from the LN. […] TD1-3 and TD7 were selected for loading into LN and testing of such LN for drug release in vitro.
# [2] = Stability in mouse plasma; format: in vitro ADME; conditions: 24 hour incubation in mouse plasma, 37° C.
# Description: as §1, §2
# [3] = system: breast cancer cell line MDA435/LCC6; assay: In vitro cytotoxicity, Alamar Blue assay; format: cell-based; conditions: Homo sapiens; MDA-MB-435/LCC6, 72-h drug exposure
# Description: (§3) Anticancer activity was evaluated against a panel of 3 human cancer cell lines, including the ovarian cancer cell line ES-2, the prostate cancer cell line PC3 and the breast cancer cell line MDA435/LCC6 (BC Cancer Research Centre, Vancouver, BC) (Fields and Lancaster, Am. Biotechnol. Lab., 11:48-50 (1993); Nakayama et al., J. Immunol. Methods, 204:205-208 (1997)). Cytotoxicity was determined using the Alamar Blue assay after a 72-h drug exposure period. […] The plates were returned to the incubator for 4 h; sample fluorescence was determined at λex=530 nm and λem=590 nm. Viability was calculated according to: Cell viability (%)=(Fplus drug−Fbackground)/(Fminus drug−Fbackground)*100, where Fplus drug is the fluorescence reading in the presence of drug, Fminus drug the cell control in the absence of drug and Fbackground the background fluorescence (media alone).
# [4] = system: ovarian cancer cell line ES-2; assay: In vitro cytotoxicity, Alamar Blue assay; format: cell-based; conditions: Homo sapiens; ES-2, 72-h drug exposure
# Description: as §3
# [5] = system: prostate cancer cell line PC3; assay: In vitro cytotoxicity, Alamar Blue assay; format: cell-based; conditions: Homo sapiens; PC-3, 72-h drug exposure
# Description: as §3
# [6] = Single dose tolerability (MTD) study; format: in vivo, SCID/Rag2-M mice; conditions: for MTD at 14 days: SCID/Rag2-M, mouse, in vivo, iv, single dose i.v.
# Description: Tolerability studies were aimed at establishing the maximum tolerated dose (MTD) and the dose range for use in efficacy studies (efficacy studies were based on a single i.v. injection). […] The studies were based on administration of a single dose and relied on 3 mice/group and a dose escalation strategy based on three dose levels for the derivative and Taxotere and five dose levels for the LN formulations (DSPC/Chol 55:45 mol % at a prodrug/lipid weight ratio of 0.2 mg/mg). All formulations were injected i.v. via the lateral tail vein in a volume of 200 μl/20 g mouse.
# Mice were monitored daily for signs of toxicity over a period of 14 days following drug administration. Tolerability was assessed by changes in body weight as well as behavioral parameters. […] Body weights of individual mice were measured every second day over the course of the study. If weight loss was not a good predictor of tolerability, the dose where no animals needed to be terminated due to toxicity was used.
# [7] = mouse, in vivo, iv, 20 mg/kg
# Description: The pharmacokinetics (PK) of LN-encapsulated docetaxel derivatives were compared to the PK of Taxotere™, the commercial docetaxel formulation, and derivatives formulated in the same manner as Taxotere™. Taxotere™ and similarly formulated derivatives were formulated as described in the prescribing information for Taxotere™ (Sanofi-Aventis, U.S.) using ethanol/polysorbate 80/physiological saline solution to dissolve the drug. The docetaxel derivative was encapsulated in DSPC/chol, DPPC/Chol and DMPC/Chol LN (55:45 mol %) at a drug-to-lipid ratio of 0.2 wt/wt using the ammonium sulfate loading technique. The lipid components contained trace amounts (0.15 μCi/mg lipid) of the lipid marker [^3H]CHE, allowing monitoring of the elimination of both the prodrug and the LN carrier from circulation.
# The PK and in vivo release studies were based on 4 time points (1, 4, 8 and 16 hrs) and 4 mice per time point. […] The methanolic solutions were centrifuged for 30 min at 15,000×g at 4° C. to pellet the proteins and the supernatant was analyzed for docetaxel and drug derivatives by UHPLC. For LN formulations, 25-50 μl of plasma was added to scintillation fluid (PicoFluor 40, Perkin Elmer) and analyzed for lipid levels ([^3H]-CHE radioactivity) by scintillation counting.
# [8] = Chemical (hydrolytic) stability in buffered aqueous solutions; format: physicochemical; conditions: 24 hour incubation in pH 7.4 buffer, 37° C.
# [9] = In vitro release of docetaxel derivatives from LN in mouse plasma; format: in vitro ADME; conditions: 37° C., same prodrug-to-lipid ratio
# Description: In vitro release of docetaxel derivatives from LN was assessed in mouse plasma. Drug retention was determined by comparison of the initial prodrug-to-lipid ratio with the prodrug-to-lipid ratios found at different time points. […] LN formulations were mixed with mouse plasma at a final lipid concentration of 0.75 mg/ml, followed by incubation at 37° C. At various time points, aliquots were taken and run over Sephadex G-50 spin columns to remove the unentrapped prodrug (Pick, Arch. Biochem. Biophys., 212:186-194 (1981)). The derivative and lipid concentrations in the eluates were determined by UHPLC and liquid scintillation counting, respectively.
# [10] = Kinetic aqueous solubility of docetaxel derivatives in acetate buffer; conditions: kinetic from dmso stock
# Description: An aliquot was diluted 10-fold with 10 mM acetate buffer (pH 5) and the pH was checked and re-adjusted as necessary to reach pH 5. Alternatively, 10 mg of each compound was weighed into a glass vial, and 2 mL of 10 mM acetate buffer (pH 5) was added to the compound, followed by sonication of the suspension for minutes. The precipitate was then removed using Microcon MY100 filters (MW cut-off 100,000 Da) and the filtrate analyzed by UPLC-UV for drug content. The measured solubilities are kinetic solubilities determined under non-equilibrium conditions.
smiles,measurement,setting,value
"CC[C@]1(O)C[C@H]2CN(CCc3c([nH]c4ccccc34)[C@@](C(=O)OC)(c3cc4c(cc3OC)N(C=O)[C@H]3[C@@](O)(C(=O)OC)[C@H](OC(C)=O)[C@]5(CC)C=CCN6CC[C@]43[C@@H]65)C2)C1 [free VCR, vincristine]",concentration profile in blood plasma over time,A431 tumors,rapidly removed from circulation
"CC(=O)O[C@@]12CO[C@@H]1C[C@H](O)[C@@]1(C)C(=O)[C@H](O)C3=C(C)[C@@H](OC(=O)[C@H](OC(=O)CCCN4CCN(C)CC4)[C@@H](NC(=O)OC(C)(C)C)c4ccccc4)C[C@@](O)([C@@H](OC(=O)c4ccccc4)C12)C3(C)C (stereo partly shown) [TD1, 2′-O-(N-methyl-piperazinylbutanoic acid ester) derivative of docetaxel]","Prodrug levels (% remaining), pH 4",[1],94%
same,half-life at 50 g/ml,"[1]; citrate/HEPES (10 mM/10 mM) buffered aqueous solution, pH 4, read-out: hydrolysis half-life (converted)",~49 days
same,"Prodrug levels (% remaining), Plasma",[2],12%
same,IC50,[3],< 100 pM
same,IC50,[4],100 pM
same,IC50,[5],500 pM
same,MTD at 14 days,"[6]; docetaxel equivalents, read-out: MTD",16 mg/kg
same,MTD at 14 days,"[6]; mg/kg prodrug, read-out: MTD expressed as prodrug",20 mg/kg
same,Clin. Observations,"[6]; docetaxel equivalent dose 20 mg/kg, 20 mg/kg",acute toxicity (lethality)
same,Clin. Observations,"[6]; docetaxel equivalent dose 20 mg/kg, listed as Derivative, 20 mg/kg",Acute toxicity
same,DRD (drug-related death),[6]; dose 16 mg/kg,0/3
same,DRD (drug-related death),[6]; dose 20 mg/kg,1/1
same,Clin. Observations,[6]; dose 24 mg/kg,Acute toxicity
same,DRD (drug-related death),[6]; dose 24 mg/kg,3/3
same,time by which plasma concentrations were below detectable levels,[7]; Swiss Webster,≤ 2 h
same,plasma circulation half-lives,[7],minutes
same,"Prodrug levels (% remaining), pH 7.4",[8],23%
same,pKa,physchem,7.7
"CC(=O)O[C@@]12CO[C@@H]1C[C@H](O)[C@@]1(C)C(=O)[C@H](O)C3=C(C)[C@@H](OC(=O)[C@H](OC(=O)CN4CCN(C)CC4)[C@@H](NC(=O)OC(C)(C)C)c4ccccc4)C[C@@](O)([C@@H](OC(=O)c4ccccc4)C12)C3(C)C (stereo partly shown) [TD2, N-methyl-piperazinyl acetic acid ester]","Prodrug levels (% remaining), pH 4",[1],99%
same,"Prodrug levels (% remaining), Plasma",[2],31%
same,in vitro retention / release rate in DSPC/chol LN relative to TD1,[9],released at a slightly faster rate
same,"Prodrug levels (% remaining), pH 7.4",[8],59%
same,solubility,"[10]; 10 mM acetate buffer with 10% (v/v) ethanol, pH 5, aqueous with cosolvent or surfactant or cyclodextrin",25 mg/mL
same,solubility,"[10]; 10 mM acetate buffer, pH 5, aqueous buffer",2 mg/mL
"CC(=O)O[C@@]12CO[C@@H]1C[C@H](O)[C@@]1(C)C(=O)[C@H](O)C3=C(C)[C@@H](OC(=O)[C@H](O)[C@@H](NC(=O)OC(C)(C)C)c4ccccc4)C[C@@](O)([C@@H](OC(=O)c4ccccc4)[C@H]21)C3(C)C [Docetaxel, reference compound]",IC50,[3],< 100 pM
same,IC50,[4],100 pM
same,IC50,[5],1000 pM
